Laboratory results reported in ChEMBL document CHEMBL1201862, “PubChem BioAssay data set” (2004).
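Exposure lasted 48 hours, with cells grown in 96-well plates and compounds tested at five concentrations. GI50 = concentration required for 50% inhibition of growth.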 Activity calls are given as the source filed them. No stated cut-off is given here; in the data, active = GI50 up to about 1.1 µM and inactive = higher.

Columns and labels:
Assay in all cases: NCI tumour cell line growth inhibition, 48 h
EKVX = test system: EKVX
HCC 2998 = test system: HCC 2998
UACC-257 = test system: UACC-257
HL-60 = test system: HL-60
OVCAR-8 = test system: OVCAR-8
M14 = test system: M14
SW-620 = test system: SW-620
OVCAR-4 = test system: OVCAR-4
OVCAR-5 = test system: OVCAR-5
CAKI-1 = test system: CAKI-1
OVCAR-3 = test system: OVCAR-3
HT-29 = test system: HT-29
SF-539 = test system: SF-539
SK-MEL-28 = test system: SK-MEL-28
SR = test system: SR
MOLT-4 = test system: MOLT-4
HOP-92 = test system: HOP-92

Measured: GI50

CC1=C(C(=O)NNS(=O)(=O)c2ccc(C)cc2)CC(C(=O)NNS(=O)(=O)c2ccc(C)cc2)=C(C)N1
inactive: EKVX > 100 µM | HCC 2998 > 100 µM | UACC-257 > 100 µM | HL-60 55.1 µM | OVCAR-8 > 100 µM | M14 > 100 µM | SW-620 > 100 µM | OVCAR-4 > 100 µM | OVCAR-5 70.1 µM | CAKI-1 94.2 µM | OVCAR-3 > 100 µM | HT-29 > 100 µM | SF-539 > 100 µM | SK-MEL-28 > 100 µM | SR 61.1 µM | MOLT-4 46.8 µM

COc1ccc(N2C(=O)C3c4[nH]c5ccccc5c4C4CC(C)CC(C)C4C3C2=O)cc1 (stereo unspecified)
inactive: EKVX > 100 µM | HCC 2998 > 100 µM | UACC-257 > 100 µM | HL-60 > 100 µM | OVCAR-8 > 100 µM | M14 > 100 µM | SW-620 > 100 µM | OVCAR-4 > 100 µM | HT-29 > 100 µM | SF-539 > 100 µM | HOP-92 > 100 µM | SK-MEL-28 > 100 µM | SR > 100 µM | MOLT-4 > 100 µM

O=c1c(Cc2ccccc2)c(O)cc2n1CCC2
inactive: EKVX > 100 µM | HCC 2998 > 100 µM | UACC-257 > 100 µM | OVCAR-8 > 100 µM | M14 > 100 µM | SW-620 > 100 µM | OVCAR-4 > 100 µM | OVCAR-5 > 100 µM | CAKI-1 > 100 µM | OVCAR-3 > 100 µM | HT-29 > 100 µM | SF-539 > 100 µM | HOP-92 > 100 µM | SK-MEL-28 > 100 µM | SR > 100 µM | MOLT-4 > 100 µM

Cc1oc2c(C)c(O)c3c(c2c1C1(C)OCCO1)C(=O)C=C(Cl)C3=O
inactive: EKVX > 100 µM | UACC-257 > 100 µM | HL-60 > 100 µM | OVCAR-8 > 100 µM | M14 > 100 µM | SW-620 > 100 µM | OVCAR-4 > 100 µM | OVCAR-5 > 100 µM | CAKI-1 > 100 µM | OVCAR-3 > 100 µM | HT-29 > 100 µM | SF-539 > 100 µM | HOP-92 > 100 µM | SK-MEL-28 > 100 µM | SR > 100 µM | MOLT-4 > 100 µM

Cc1ccccc1NC(=O)CC(=O)NNCC(=O)Nc1nnc(-c2ccccc2)s1
inactive: EKVX 49.7 µM | HCC 2998 > 100 µM | UACC-257 > 100 µM | HL-60 31.5 µM | OVCAR-8 54.2 µM | M14 57.1 µM | SW-620 87.7 µM | OVCAR-4 18 µM | OVCAR-5 > 100 µM | CAKI-1 > 100 µM | OVCAR-3 31.4 µM | HT-29 > 100 µM | SF-539 > 100 µM | SK-MEL-28 > 100 µM | SR 32.1 µM | MOLT-4 35.7 µM

Cc1cc(N(CCC#N)CCC#N)ccc1/N=N/c1cccc(Cl)c1
inactive: EKVX > 100 µM | UACC-257 > 100 µM | HL-60 3.94 µM | OVCAR-8 > 100 µM | M14 > 100 µM | SW-620 > 100 µM | OVCAR-4 > 100 µM | OVCAR-5 > 100 µM | CAKI-1 2.96 µM | OVCAR-3 > 100 µM | HT-29 4.08 µM | SF-539 > 100 µM | HOP-92 20.7 µM | SK-MEL-28 > 100 µM

N#CC12Cc3cc4c(cc3-c3cccc(c31)CCN2C(=O)c1ccccc1)OCO4 (stereo unspecified)
inactive: EKVX > 100 µM | HCC 2998 > 100 µM | UACC-257 > 100 µM | HL-60 > 100 µM | OVCAR-8 65.3 µM | M14 > 100 µM | SW-620 > 100 µM | OVCAR-5 > 100 µM | OVCAR-3 > 100 µM | HT-29 > 100 µM | SF-539 > 100 µM | HOP-92 22.8 µM | SK-MEL-28 > 100 µM | SR > 100 µM | MOLT-4 > 100 µM

CCSc1nc2n(c(=S)n1)CCN2C
inactive: EKVX 28.4 µM | HCC 2998 16.3 µM | UACC-257 12.1 µM | HL-60 16.4 µM | OVCAR-8 20.7 µM | M14 15.8 µM | SW-620 19.7 µM | OVCAR-4 18.5 µM | OVCAR-5 21.4 µM | CAKI-1 13.5 µM | OVCAR-3 20 µM | HT-29 17.4 µM | SF-539 19.2 µM | SK-MEL-28 20.1 µM | SR 7.67 µM | MOLT-4 12.2 µM

COc1ccc(C2C3=C(COC3=O)Oc3cc4c(cc32)OCO4)cc1 (stereo unspecified)
inactive: EKVX 50.5 µM | UACC-257 39.3 µM | HL-60 3.97 µM | OVCAR-8 36.2 µM | M14 17.7 µM | SW-620 6.21 µM | OVCAR-4 27.3 µM | CAKI-1 7.53 µM | OVCAR-3 7.18 µM | HT-29 3.81 µM | SF-539 19.4 µM | HOP-92 14.9 µM | SK-MEL-28 47.9 µM | MOLT-4 6.71 µM

CNC(=S)N/N=C1\CC(c2ccccc2)Oc2ccccc21 (stereo unspecified)
inactive: EKVX > 100 µM | HCC 2998 > 100 µM | OVCAR-8 > 100 µM | M14 > 100 µM | SW-620 > 100 µM | OVCAR-4 18.6 µM | OVCAR-5 > 100 µM | CAKI-1 > 100 µM | OVCAR-3 34.8 µM | HT-29 > 100 µM | SF-539 > 100 µM | HOP-92 18.3 µM | SK-MEL-28 > 100 µM | SR > 100 µM | MOLT-4 > 100 µM

COc1ccccc1/C=C\c1cc(OC)c(OC)c(OC)c1
inactive: EKVX 15.2 µM | UACC-257 31.6 µM | HL-60 3.22 µM | OVCAR-8 24.5 µM | M14 5.85 µM | SW-620 3.85 µM | OVCAR-4 25.8 µM | OVCAR-5 34 µM | CAKI-1 8.22 µM | OVCAR-3 10.2 µM | HT-29 3.97 µM | SF-539 6.4 µM | HOP-92 8.65 µM | SK-MEL-28 33.9 µM | MOLT-4 4.31 µM

CN(C)c1ccc(-c2cc(O)c3ccccc3n2)cc1
inactive: EKVX > 100 µM | HCC 2998 > 100 µM | UACC-257 > 100 µM | HL-60 > 100 µM | OVCAR-8 > 100 µM | M14 > 100 µM | SW-620 > 100 µM | OVCAR-3 > 100 µM | HT-29 > 100 µM | SF-539 > 100 µM | SK-MEL-28 > 100 µM | SR > 100 µM | MOLT-4 > 100 µM

N#CC(C#N)=Cc1ccc(CP(=O)(O)O)cc1
inactive: EKVX > 100 µM | HCC 2998 > 100 µM | UACC-257 > 100 µM | HL-60 70.6 µM | OVCAR-8 > 100 µM | M14 > 100 µM | SW-620 > 100 µM | OVCAR-4 > 100 µM | OVCAR-5 > 100 µM | CAKI-1 > 100 µM | OVCAR-3 > 100 µM | HT-29 > 100 µM | SF-539 > 100 µM | HOP-92 > 100 µM | SK-MEL-28 > 100 µM | MOLT-4 > 100 µM
